Key:
HBV DNA replication = assay: Inhibition experiment on HBV virus replication (HepG 2,2,15 cells, supernatant HBV DNA by qPCR); format: cell-based; settings: Hepatitis B virus, HepG2.2.15, 10 days treatment, supernatant HBV DNA on day 11
From the text: (§1) The chromosomal integration of HepG2,2,15 cells (SELLS, PNAS, 1987 and SELLS, JV, 1988) has a complete HBV genome and stably expresses viral RNA and viral proteins. HepG2,2,15 cells are capable of secreting mature hepatitis B virus particles and HBsAg into the culture medium. Virus particles DNA and HBsAg secreted by HepG 2,2,15 cells can be quantified by qPCR and ELISA, and the effects of compounds on viral replication and HBsAg secretion can be detected.
(§2) HepG 2,2,15 cells were inoculated with 8,000 per cell to 96-well cell culture plates in duplicate, and were cultured for 3 days until the cells grew to full-hole. Cells were treated with 4-fold serial dilutions of compounds for 10 days, and were given once every other day. The final concentration of DMSO in all pores was 0.5% and DMSO was used as a drug-free control. The supernatant was collected for quantitative detection of HBV DNA on day 11.
Viral genomic DNA was detected by qPCR method, and HBV primers were as follows: […]
The SYBR Premix Ex Taq D-Takara DRR081S kit was used, and 1 μL of cell culture supernatant was used as a template. A standard curve was made using a plasmid containing the HBV genome, and the viral copy number was calculated using the standard curve. Concentration-virus copy number was processed using Graphpad Prism 5 software, and IC50 of compounds inhibiting virus replication was calculated by four-parameter nonlinear regression model.

HBsAg secretion = assay: Inhibition experiment on HBsAg secretion (HepG 2,2,15 cells, ELISA); format: cell-based; settings: Hepatitis B virus, HepG2.2.15, read-out: HBsAg IC50
From the text: as §1
as §2, with “HBsAg” for “HBV DNA”
The level of HBsAg secreted by the cells after treatment of the compound was detected by ELISA method, and the method used a hepatitis B surface antigen diagnostic kit (Shanghai Kehua Biotech Co., Ltd. S10910113). 25 μL of the supernatant to be assayed (PBS was diluted to 75 μL) was added to per well in the ELISA plate, and the kit positive control and negative control were set. The ELIS A plate was blocked with a cover paper and incubated at 37° C. for 60 minutes. The ELISA plate was taken out, and the cover paper was teared off, and 50 μL of enzyme conjugate was added to each well. The ELISA plate was oscillated on the shaker for 10 seconds, blocked with a cover paper and incubated at 37° C. for 30 minutes. The ELISA plate was taken out, the cover paper was teared off, and the ELISA plate was washed 5 times: each time the liquid in the hole was discarded, and the washing liquid was filled into the holes, left to stand for 60 seconds, dried, and the liquid residue was patted to dry on the absorbent paper. A freshly prepared mixture of Developer A and Developer B was added to all wells immediately after washing: 100 μL per well. The ELISA plate was oscillated on the shaker for 10 seconds, blocked with a cover paper and incubated at 37° C. for 30 minutes. 50 μL of stop solution was added to all wells. Absorbance was read on the Envision plate reader at a wavelength of 450 nm.
Concentration-HBsAg OD450 was processed using Graphpad Prism 5 software, and IC50 of compounds inhibiting against HBsAg secretion was calculated by four-parameter nonlinear regression model.

[1] = PK test experiments in SD rats; format: in vivo; parameters: VSS: unit not given here; settings: for AUC(0-inf) / AUC(0-t) / Cmax / clearance: male, rat, plasma
Method: (§3) The PK test in vivo of the compound of the present invention in SD rats (body weight 200-250 g, male, age 2-3 months, 3 per group with oral administration, 3 per group with intravenous injection) The SD rat was administered orally with 2.5 mg/kg or 5 mg/kg of the compound tested or intravenously injected with 0.5 mg/kg or 1 mg/kg of the compound tested. After administration, venous blood was collected at time points (0.083, 0.25, 0.5, 1, 2, 5, 7 and 24 hours) and collected in an anticoagulation tube to which EDTA-K2 was added. Plasma samples were extracted by liquid-liquid extraction and quantitatively analyzed by multiple reaction ion monitoring (MRM) on a triple quadrupole tandem mass spectrometer. Pharmacokinetic parameters were calculated using a noncompartmental method by WinNonLin 6.3 software.

[2] = PK test experiments in beagle dogs; format: in vivo; settings: for AUC(0-inf) / AUC(0-t) / Cmax / clearance: male, dog, plasma
Method: as §3, with “beagle dogs” for “SD rats”, “10-12 kg,” for “200-250 g,”, “10-12” for “2-3”, “beagle dog” for “SD rat”, “administered orally with 2.5 mg/kg or 5 mg/kg of the compound tested or intravenously injected with 0.5 mg/kg or 1 mg/kg of the compound tested.” left out, “4, 6, 8” for “5, 7”

Row | Structure (SMILES) | IC50 (HBV DNA replication) [nM] | IC50 (HBsAg secretion) [nM] | VSS ([1]; IV, 1 mg/kg) | F ([1]; PO, 5 mg/kg) [%] | AUC(0-inf) ([1]; IV, 1 mg/kg) [ng·h/mL] | AUC(0-t) ([1]; IV, 1 mg/kg) [ng·h/mL] | Cmax ([1]; IV, 1 mg/kg) [ng/mL] | clearance ([1]; IV, 1 mg/kg) [mL/min/kg] | AUC(0-inf) ([1]; PO, 5 mg/kg) [ng·h/mL] | AUC(0-t) ([1]; PO, 5 mg/kg) [ng·h/mL] | Cmax ([1]; PO, 5 mg/kg) [ng/mL] | VSS ([2]; IV, 0.5 mg/kg) [kg⁻¹] | F ([2]; PO, 2.5 mg/kg) [%] | AUC(0-inf) ([2]; IV, 0.5 mg/kg) [ng·h/mL] | AUC(0-t) ([2]; IV, 0.5 mg/kg) [ng·h/mL] | Cmax ([2]; IV, 0.5 mg/kg) [ng/mL] | clearance ([2]; IV, 0.5 mg/kg) [mL/min/kg] | AUC(0-inf) ([2]; PO, 2.5 mg/kg) [ng·h/mL] | AUC(0-t) ([2]; PO, 2.5 mg/kg) [ng·h/mL] | Cmax ([2]; PO, 2.5 mg/kg) [ng/mL]
1 | COCCCOc1cc2c(c3c1OCC3)-c1cc(=O)c(C(=O)O)cn1C(C(C)C)C2 (centres unmarked) [Example 2, 7-Isopropyl-4-(3-methoxypropoxy)-11-oxo-2,6,7,11-tetrahydro-1H-furo[2,3-h]pyrido[2,1-a]isoquinoline-10-carboxylic Acid] | 1.21 | 1.45 | 1.8 | 174.5 | 1330 | 1210 | 738 | 12.6 | 10600 | 10600 | 1860 | – | – | – | – | – | – | – | – | –
2 | CC(C)C1Cc2cc(OCCC3CC3)c3c(c2-c2cc(=O)c(C(=O)O)cn21)CCO3 (centres unmarked) [Example 3, 4-(2-Cyclopropylethoxy)-7-isopropyl-11-oxo-2,6,7,11-tetrahydro-1H-furo[2,3-h]pyrido[2,1-a]isoquinoline-10-carboxylic Acid] | 1.6 | 1.4 | 1.5 | 167.4 | 1760 | 1630 | 744 | 9.45 | 14800 | 14700 | 1810 | – | – | – | – | – | – | – | – | –
3 | CC(C)C1Cc2cc(-c3cnn(C(C)C)c3)c3c(c2-c2cc(=O)c(C(=O)O)cn21)CCO3 (centres unmarked) [Example 9, 7-Isopropyl-4-(1-isopropyl-1H-pyrazol-4-yl)-11-oxo-2,6,7,11-tetrahydro-1H-furo[2,3-h]pyrido[2,1-a]isoquinoline-10-carboxylic Acid] | 1.1 | 2.83 | 2.2 | 94 | 1190 | 1180 | 641 | 14 | 5590 | 5560 | 1630 | – | – | – | – | – | – | – | – | –
4 | CC1(C)CCC2c3cc(OCCC4CC4)c4c(c3-c3cc(=O)c(C(=O)O)cn3N21)CCO4 (centres unmarked) [Example 13, 5-(2-Cyclopropylethoxy)-1,1-dimethyl-10-oxo-2,3,3a,7,8,10-hexahydro-1H-furo[3,2-f]pyrido[1,2-c]pyrrolo[2,1-a]phthalazine-11-carboxylic Acid] | < 0.24 | 0.34 | 1.4 | 129 | 2860 | 2830 | 1000 | 5.84 | 18400 | 18300 | 1700 | – | – | – | – | – | – | – | – | –
5 | CC(C)N1Cc2cc(OCCC3CC3)c3c(c2-c2cc(=O)c(C(=O)O)cn21)CCO3 [Example 15, 4-(2-Cyclopropylethoxy)-7-isopropyl-11-oxo-2,6,7,11-tetrahydro-1H-furo [2,3-h]pyrido[2,1-a]phthalazine-10-carboxylic Acid] | 1.81 | 3.13 | 0.9 | 157.9 | 2280 | 2140 | 1500 | 7.32 | 17800 | 17700 | 2170 | 0.23 | 102.2 | 12200 | 11900 | 2010 | 0.69 | 62400 | 60500 | 7090
6 | CC(C)N1Cc2cc(-c3cnn(C(C)C)c3)c3c(c2-c2cc(=O)c(C(=O)O)cn21)CCO3 [Example 17, 7-Isopropyl-4-(1-isopropyl-11-pyrazol-4-yl)-11-oxo-2,6,7,11-tetrahydro-1H-furo[2,3-h]pyrido[2,1-a]phthalazine-10-carboxylic Acid] | 1.51 | 3.27 | 1.01 | 130.6 | 1640 | 1610 | 932 | 10.1 | 10700 | 10700 | 1620 | – | – | – | – | – | – | – | – | –
7 | CC(C)C1Cc2cc(-c3cnn(C4CCC4)c3)c3c(c2-c2cc(=O)c(C(=O)O)cn21)CCO3 (centres unmarked) [Example 33, 4-(1-Cyclobutyl-1H-pyrazol-4-yl)-7-isopropyl-11-oxo-2,6,7,11-tetrahydro-1H-furo[2,3-h]pyrido[2,1-a]isoquinoline-10-carboxylic Acid] | 1.23 | 1.36 | – | – | – | – | – | – | – | – | – | – | – | – | – | – | – | – | – | –
8 | CC(C)C1Cc2cc(-c3cnn(C4CCOCC4)c3)c3c(c2-c2cc(=O)c(C(=O)O)cn21)CCO3 (centres unmarked) [Example 34, 7-Isopropyl-11-oxo-4-(1-(tetrahydro-2H-pyran-4-yl)-1H-pyrazol-4-yl)-2,6,7,11-tetrahydro-1H-furo[2,3-h]pyrido[2,1-a]isoquinoline-10-carboxylic Acid] | 3.72 | 2.37 | – | – | – | – | – | – | – | – | – | – | – | – | – | – | – | – | – | –
9 | CC(C)C1Cc2cc(-c3cnn(C4COC4)c3)c3c(c2-c2cc(=O)c(C(=O)O)cn21)CCO3 (centres unmarked) [Example 35, 7-Isopropyl-4-(1-(oxetan-3-yl)-1H-pyrazol-4-yl)-11-oxo-2,6,7,11-tetra hydro-1H-furo[2,3-h]pyrido[2,1-a]isoquinoline-10-carboxylic Acid] | 2.35 | 3.29 | – | – | – | – | – | – | – | – | – | – | – | – | – | – | – | – | – | –
10 | COCCCOc1cc2c(c3c1OC(C)(C)C3)-c1cc(=O)c(C(=O)O)cn1C(C(C)C)C2 (centres unmarked) [Example 39, 7-Isopropyl-4-(3-methoxypropoxy)-2,2-dimethyl-11-oxo-2,6,7,11-tetrahydro-1H-furo[2,3h]pyrido[2,1-a]isoquinoline-10-carboxylic Acid] | 1.65 | 0.91 | – | – | – | – | – | – | – | – | – | – | – | – | – | – | – | – | – | –
11 | CC(C)C1Cc2cc(OCCC3CC3)c3c(c2-c2cc(=O)c(C(=O)O)cn21)CC(C)(C)O3 (centres unmarked) [Example 40, 4-(2-Cyclopropylethoxy)-7-isopropyl-2,2-dimethyl-11-oxo-2,6,7,11-tetrahydro-1H-furo[2,3-h]pyrido[2,1-a]isoquinoline-10-carboxylic Acid] | 1.45 | 0.54 | – | – | – | – | – | – | – | – | – | – | – | – | – | – | – | – | – | –
12 | CC(C)C1Cc2cc(-c3cnn(C(F)F)c3)c3c(c2-c2cc(=O)c(C(=O)O)cn21)CC(C)(C)O3 (centres unmarked) [Example 41, 4-(1-(Difluoromethyl)-1H-pyrazol-4-yl)-7-isopropyl-2,2-dimethyl-11-oxo-2,6,7,11-tetrahydro-1H-furo[2,3-h]pyrido[2,1-a]isoquinoline-10-carboxylic Acid] | 2.09 | 0.54 | – | – | – | – | – | – | – | – | – | – | – | – | – | – | – | – | – | –
13 | CC(C)N1Cc2cc(-c3cnn(C(F)F)c3)c3c(c2-c2cc(=O)c(C(=O)O)cn21)CCO3 [Example 43, 4-(1-(Difluoromethyl)-1H-pyrazol-4-yl)-7-isopropyl-11-oxo-2,6,7,11-tetrahydro-1H-furo[2,3-h]pyrido[2,1-a]phthalazine-10-carboxylic Acid] | 1.85 | 0.98 | – | – | – | – | – | – | – | – | – | 0.48 | 100.7 | 9990 | 9030 | 1080 | 0.83 | 49300 | 45500 | 5770

From patent US11447498B2, “Fused tetracyclic compounds and uses thereof in medicine” (SUNSHINE LAKE PHARMA CO., LTD., priority 2018, dated 2022)
